Experimental data from ChEMBL document CHEMBL6177952, “Exploring chloro-isoxazole compounds inspired on tetrahydrofuran neolignans as promising antileishmanial agents” (Eur J Med Chem, 2025).
Activity calls are given as the source filed them. The rule behind the calls is not given here.

Assays:
Leishmania amazonensis [1] = assay: Antileishmanial activity against leishmania amazonensis infected in BALB/c mouse assessed as reduction in parasite load in footpad tissue at 5 mg/kg, ILES measured after 65 days post infection by limiting dilution assay; type: functional, organism-based; conditions: time 65.0 day
Leishmania amazonensis [2] = assay: Antileishmanial activity against leishmania amazonensis IFLA/BR/1967/PH8 intracellular amastigote infected in mouse Peritoneal macrophage incubated for 24 hrs; type: functional, organism-based; conditions: IFLA/BR/1967/PH8, Peritoneal macrophage
[3] = Mutagenicity in Salmonella typhimurium TA98 assessed as number of revertant colonies per plate at 500 microg/ml by Ames test; type: toxicity; conditions: salmonella enterica subsp. enterica serovar typhimurium; dose 500 µg/ml
[4] = Mutagenicity in Salmonella typhimurium TA100 assessed as number of revertant colonies per plate at 50 microg/ml by Ames test; type: toxicity; conditions: salmonella enterica subsp. enterica serovar typhimurium; dose 50 µg/ml
[5] = Mutagenicity in Salmonella typhimurium TA102 assessed as number of revertant colonies per plate at 500 microg/ml in presence of S9 fraction by Ames test; type: toxicity, subcellular; conditions: salmonella enterica subsp. enterica serovar typhimurium, dose 500 µg/ml
[6] = Mutagenicity in Salmonella typhimurium TA102 assessed as number of revertant colonies per plate at 5000 microg/ml in presence of S9 fraction by Ames test; type: toxicity, subcellular; conditions: salmonella enterica subsp. enterica serovar typhimurium, dose 5000 µg/ml
[7] = Mutagenicity in Salmonella typhimurium TA102 assessed as number of revertant colonies per plate at 1500 microg/ml in presence of S9 fraction by Ames test; type: toxicity, subcellular; conditions: salmonella enterica subsp. enterica serovar typhimurium, dose 1500 µg/ml
Leishmania amazonensis [8] = assay: Antileishmanial activity against Leishmania amazonensis promastigotes assessed as late apoptotic parasites at 38.1 uM incubated for 72 hrs by Annexin V/7-AAD staining based flow cytometry analysis relative to control; type: functional
[9] = Mutagenicity in Salmonella typhimurium TA102 assessed as number of revertant colonies per plate at 1500 microg/ml by Ames test; type: toxicity; conditions: salmonella enterica subsp. enterica serovar typhimurium; dose 1500 µg/ml
[10] = Cytotoxicity against BALB/c mouse Peritoneal macrophage assessed as inhibition of cell growth incubated for 48 hrs by MTT assay; type: toxicity, cell-based; conditions: peritoneal macrophages
[11] = Mutagenicity in Salmonella typhimurium TA98 assessed as number of revertant colonies per plate at 50 microg/ml by Ames test; type: toxicity; conditions: salmonella enterica subsp. enterica serovar typhimurium; dose 50 µg/ml
[12] = Selectivity ratio of CC50 for cytotoxicity against BALB/c mouse Peritoneal macrophage assessed as inhibition of cell growth to IC50 for antileishmanial activity against leishmania amazonensis IFLA/BR/1967/PH8 promastigotes infected in mouse Peritoneal macrophage; type: toxicity, cell-based; conditions: peritoneal macrophages, read-out: Ratio CC50/IC50

**Q.** Which Activity (Leishmania amazonensis [1]) does the source give for `COc1cc(-c2cc(-c3ccc4c(c3)OCO4)on2)c(Cl)c(OC)c1OC` here?
**A.** Active

**Q.** And the IC50 (Leishmania amazonensis [2])?
**A.** 2.2 µM

**Q.** What about the revertant count [3] of the same compound?
**A.** 23.3 revertants/plate

**Q.** And the revertant count [4]?
**A.** 103 revertants/plate

**Q.** And the revertant count [5]?
**A.** 109 revertants/plate

**Q.** What about the revertant count [6] of the same compound?
**A.** 100 revertants/plate

**Q.** What about the Activity [7] of the same compound?
**A.** 100 revertants/plate

**Q.** What about the Activity (Leishmania amazonensis [8]) of the same compound?
**A.** 1.9%

**Q.** And the Activity [9]?
**A.** 182 revertants/plate

**Q.** And the CC50 at 48 h [10]?
**A.** 50.1 µM

**Q.** And the Activity [11]?
**A.** 19.7 revertants/plate

**Q.** What about the selectivity ratio [12] of the same compound?
**A.** 1.3
